From patent US9833497B2, “Human originated EGF domain proteins and use of the same” (CHENGDU SOURCEBIO LIMITED-LIABILITY COMPANY, priority 2013, dated 2017) come the findings set out here.

What all share (type): cell-based
In one test the test system is Moraxella catarrhalis. Put plainly: MIC against Gram-negative bacteria: Moraxella catarrhalis. The note with it: for MIC against M. catarrhalis: 96-well plate, 37° C., 10 h. The gist of the method: (§1)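 Bacteria grown in LB at 37° C to McFarland 0.5, resuspended and seeded at 5×10^5 CFU/mL in 96-well plates. Purified human EGF-domain proteins two-fold serially diluted, triplicate wells; cultured at 37° C, shaking 175 rpm. MIC = lowest protein concentration with no growth.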

The subject of another test is Aeromonas hydrophila. Put plainly: MIC against Gram-negative bacteria: Aeromonas hydrophila. As to conditions: for MIC against A. hydrophila: 96-well plate, 37° C., 10 h. The method in brief: as §1
A further test relates to E. coli BL21. Put plainly: MIC against Gram-negative bacteria: E. coli BL21. The note with it: for MIC against E. coli BL21: 96-well plate, 37° C., 10 h. The method in brief:
as §1

The test system of a further test is Klebsiella pneumonia. Put plainly: MIC against Gram-negative bacteria: Klebsiella pneumonia. The note with it: for MIC against K. pneumonia: 96-well plate, 37° C., 10 h. The method in brief: as §1
Another test concerns Serratia marcescens. Put plainly: MIC against Gram-negative bacteria: Serratia marcescens. The note with it: for MIC against S. marcescens: 96-well plate, 37° C., 10 h. The gist of the method: as §1
Another test relates to Proteus vulgaris. Put plainly: MIC against Gram-negative bacteria: Proteus vulgaris. As to conditions: for MIC against P. vulgaris: 96-well plate, 37° C., 10 h. The method in brief:
as §1

The subject of a further test is E. coli DH5α. Put plainly: Antibacterial activity: MIC and growth curve against E. coli DH5α in 96-well plate. As to conditions: minimal inhibitory concentration against E. coli DH5α; 96-well plate, 5×10^5 CFU/mL, 37° C., judged after 8 h. The gist of the method:
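Log-phase DH5α (OD600 about 0.5, 37° C, 185 rpm in LB) was pelleted, resuspended in fresh LB and seeded at 5×10^5 CFU/mL with recombinant protein at 50, 25 and 12.5 μg/mL (two-fold series), in triplicate. Plates were shaken at 175 rpm, 37° C, and OD600 was read every 30 min. MIC was the lowest concentration with no growth.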

A further test deals with Enterobacter cloacae. Put plainly: MIC against Gram-negative bacteria: Enterobacter cloacae. As to conditions: for MIC against E. cloacae: 96-well plate, 37° C., 10 h. The method in brief:
as §1

The test system of another test is Pseudomonas aeruginosa. Put plainly: MIC against Gram-negative bacteria: Pseudomonas aeruginosa. As to conditions: for MIC against P. aeruginosa: 96-well plate, 37° C., 10 h. The method in brief:
as §1

The subject of a further test is Proteus mirabilis. Put plainly: MIC against Gram-negative bacteria: Proteus mirabilis. The note with it: for MIC against P. mirabilis: 96-well plate, 37° C., 10 h. The method in brief:
as §1

The next test deals with Citrobacter diversus. Put plainly: MIC against Gram-negative bacteria: Citrobacter diversus. As to conditions: for MIC against C. diversus: 96-well plate, 37° C., 10 h. The gist of the method:
as §1

The mark [1] stands for this setting: Moraxella catarrhalis, 5×10^5 CFU/mL.
The mark [2] stands for this setting: Aeromonas hydrophila, 5×10^5 CFU/mL.
Where [3] appears, read: Klebsiella pneumonia, 5×10^5 CFU/mL.
Where [4] appears, read: Serratia marcescens, 5×10^5 CFU/mL.
Where [5] appears, read: Proteus vulgaris, 5×10^5 CFU/mL.
Where [6] appears, read: Enterobacter cloacae, 5×10^5 CFU/mL.
Setting [7] is: Pseudomonas aeruginosa, 5×10^5 CFU/mL.
The mark [8] stands for this setting: Proteus mirabilis, 5×10^5 CFU/mL.
[9] abbreviates: Citrobacter diversus, 5×10^5 CFU/mL.
The mark [10] stands for this setting: 10 h cultivation at 37° C., 5×10^5 CFU/mL, two-fold serial dilution.

What is called MIC is the lowest concentration that inhibits growth of the organism. A lower MIC goes with inhibition by little substance. With “PRT1317 (APNPCWPSPCSLLAQCSVSPKGQAQCHCPENYHGDGMVCL; listed as Homo sapiens)”, in the test with Moraxella catarrhalis (setting [1]), the “MIC against M. catarrhalis” value amounted to 25 µg/mL. The “MIC against A. hydrophila” value against Aeromonas hydrophila (setting [2]) came out at 25 µg/mL. The “MIC against E. coli BL21” value against E. coli BL21 (E. coli BL21, 5×10^5 CFU/mL) stood at 12.5 µg/mL. Also, the “MIC against K. pneumonia” value in the test on Klebsiella pneumonia (setting [3]) was determined as 25 µg/mL. Also, the “MIC against S. marcescens” value against Serratia marcescens (setting [4]) was 12.5 µg/mL. The “MIC against P. vulgaris” value in the test on Proteus vulgaris (setting [5]) came to 50 µg/mL. In the test on E. coli DH5α, this substance gave an MIC of 50 µg/mL. For the same substance, the “MIC against E. cloacae” value in the test on Enterobacter cloacae (setting [6]) was 12.5 µg/mL. Also, in the test on Pseudomonas aeruginosa (setting [7]), the “MIC against P. aeruginosa” value is 50 µg/mL. Further, the “MIC against P. mirabilis” value in the test on Proteus mirabilis (setting [8]) amounted to 12.5 µg/mL. In addition, in the test on Citrobacter diversus (setting [9]), the “MIC against C. diversus” value was 50 µg/mL.
Turning to “PRT1239 (TIPICEGPDACQKDEVCVKPGLCRCKPGFFGAHCS; listed as Homo sapiens)”, the “MIC against M. catarrhalis” value against Moraxella catarrhalis (setting [1]) came to 12.5 µg/mL. Further, the “MIC against A. hydrophila” value in the test with Aeromonas hydrophila (setting [2]) came out at 12.5 µg/mL. In addition, in the test with E. coli BL21 (E. coli BL21, 5×10^5 CFU/mL), the “MIC against E. coli BL21” value worked out at 12.5 µg/mL. In the test with Klebsiella pneumonia (setting [3]), the “MIC against K. pneumonia” value was determined as 12.5 µg/mL. The “MIC against S. marcescens” value in the test on Serratia marcescens (setting [4]) worked out at 25 µg/mL. The “MIC against P. vulgaris” value with Proteus vulgaris (setting [5]) was 50 µg/mL. The substance further came in with an MIC in the test with E. coli DH5α of 25 µg/mL. The “MIC against E. cloacae” value with Enterobacter cloacae (setting [6]) was 50 µg/mL. Moreover, the “MIC against P. aeruginosa” value in the test with Pseudomonas aeruginosa (setting [7]) was 50 µg/mL. Besides, the “MIC against P. mirabilis” value with Proteus mirabilis (setting [8]) came out at 25 µg/mL. Moreover, the “MIC against C. diversus” value with Citrobacter diversus (setting [9]) turned out to be 50 µg/mL.
On to “PRT905 (DVNECDSQPCLHGGTCQDGCGSYRCTCPQGYTGPNCQ; listed as Homo sapiens)”, for which the MIC is 25 µg/mL against Moraxella catarrhalis (M. catarrhalis, 10 h cultivation at 37° C.); 12.5 µg/mL against Aeromonas hydrophila (A. hydrophila, 10 h cultivation at 37° C.); 50 µg/mL with E. coli BL21 (E. coli BL21, 10 h cultivation at 37° C.); 25 µg/mL against Klebsiella pneumonia (K. pneumonia, 10 h cultivation at 37° C.); 12.5 µg/mL against Serratia marcescens (S. marcescens, 10 h cultivation at 37° C.); 50 µg/mL with Proteus vulgaris (P. vulgaris, 10 h cultivation at 37° C.). In addition, the MIC with E. coli DH5α was found to be 25 µg/mL; against Enterobacter cloacae (E. cloacae, 10 h cultivation at 37° C.), 50 µg/mL; against Pseudomonas aeruginosa (P. aeruginosa, 10 h cultivation at 37° C.) it was 12.5 µg/mL; against Proteus mirabilis (P. mirabilis, 10 h cultivation at 37° C.), 12.5 µg/mL; against Citrobacter diversus (C. diversus, 10 h cultivation at 37° C.) it was 50 µg/mL.
Consider “PRT1166 (DTPEGVRYISSNVCGPHGKCKSQSGGKFTCDCNKGFTGTYCH; listed as Homo sapiens)”, for which the “MIC M. catarrhalis” value against Moraxella catarrhalis (setting [10]) was 50 µg/mL. In the test on Aeromonas hydrophila (setting [10]), the “MIC A. hydrophila” value was 25 µg/mL. Also, the “MIC E. coli BL21” value in the test with E. coli BL21 (setting [10]) came out at 12.5 µg/mL. Further, the “MIC K. pneumonia” value in the test with Klebsiella pneumonia (setting [10]) was determined as 50 µg/mL. The “MIC S. marcescens” value in the test on Serratia marcescens (setting [10]) is 12.5 µg/mL. The “MIC P. vulgaris” value in the test on Proteus vulgaris (setting [10]) was 50 µg/mL. Moreover, the MIC against E. coli DH5α was found to be 50 µg/mL. For the same substance, in the test on Enterobacter cloacae (setting [10]), the “MIC E. cloacae” value was 25 µg/mL. Also, the “MIC P. aeruginosa” value in the test on Pseudomonas aeruginosa (setting [10]) was determined as 25 µg/mL. In addition, the “MIC P. mirabilis” value in the test with Proteus mirabilis (setting [10]) was determined as 12.5 µg/mL. Moreover, in the test on Citrobacter diversus (setting [10]), the “MIC C. diversus” value was found to be 12.5 µg/mL.
As to “PRT464 (DLDECRVRNLCQHACRNTEGSYQCLCPAGYRLLPSGKNCQ; listed as Homo sapiens)”, the “MIC against M. catarrhalis” value with Moraxella catarrhalis (5×10^5 CFU/mL) was determined as 25 µg/mL. For the same substance, the “MIC against A. hydrophila” value against Aeromonas hydrophila (5×10^5 CFU/mL) came out at 25 µg/mL. Also, the “MIC against E. coli BL21” value against E. coli BL21 (5×10^5 CFU/mL) came to 50 µg/mL. Also, the “MIC against K. pneumonia” value in the test on Klebsiella pneumonia (5×10^5 CFU/mL) worked out at 50 µg/mL. In addition, the “MIC against S. marcescens” value against Serratia marcescens (5×10^5 CFU/mL) was 12.5 µg/mL. Besides, the “MIC against P. vulgaris” value in the test with Proteus vulgaris (5×10^5 CFU/mL) was found to be 50 µg/mL. This substance had an MIC in the test on E. coli DH5α of 12.5 µg/mL. Moreover, in the test with Enterobacter cloacae (5×10^5 CFU/mL), the “MIC against E. cloacae” value was 12.5 µg/mL. Besides, the “MIC against P. aeruginosa” value in the test on Pseudomonas aeruginosa (5×10^5 CFU/mL) amounted to 12.5 µg/mL. Moreover, the “MIC against P. mirabilis” value in the test with Proteus mirabilis (5×10^5 CFU/mL) turned out to be 12.5 µg/mL. Moreover, the “MIC against C. diversus” value in the test on Citrobacter diversus (5×10^5 CFU/mL) was 50 µg/mL.
